This test deals with T1, human CCR6 (Homo sapiens, UniProt P51684).
T1 construct: expressed in transfected cells; host or cells: HEK-293
T1 sequence (P51684 1-374): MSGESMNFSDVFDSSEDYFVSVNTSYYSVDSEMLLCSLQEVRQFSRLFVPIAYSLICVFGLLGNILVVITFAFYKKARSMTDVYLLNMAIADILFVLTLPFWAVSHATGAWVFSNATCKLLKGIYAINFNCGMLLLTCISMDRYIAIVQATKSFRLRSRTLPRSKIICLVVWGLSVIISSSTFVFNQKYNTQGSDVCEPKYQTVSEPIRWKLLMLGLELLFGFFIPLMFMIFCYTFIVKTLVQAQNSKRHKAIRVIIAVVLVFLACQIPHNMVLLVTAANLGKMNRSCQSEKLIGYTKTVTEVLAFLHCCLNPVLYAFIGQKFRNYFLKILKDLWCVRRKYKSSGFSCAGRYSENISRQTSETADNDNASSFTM
The test can be described thus: FLIPR assay (inhibition of CCL20-induced calcium signal). Particulars: HEK-293 cells expressing human CCR6; mean values where determined several times; read-out: FLIPR IC50. The format is cell-based. The method, boiled down: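 IC50 values come from baseline-corrected peak calcium fluorescence after agonist. The agonist was CCL20 at 10 nM final, added to engineered human CCR6 HEK-293 cells following a 30-min, room-temperature, dark preincubation with serially diluted compound. Readings were taken in a fluorometric imaging plate reader.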
Turning to `Cc1cnc(-c2cncc(C(O)(c3ccc(C(C)C)cc3)C3(C)CN(C)C3)c2)s1` (centres unmarked) [Example 271, (1,3-Dimethyl-azetidin-3-yl)-(4-isopropyl-phenyl)-[5-(5-methyl-thiazol-2-yl)-pyridin-3-yl]-methanol], the IC50 (usually the midpoint of a concentration-inhibition curve) amounted to 36.5 nM.

As for `COc1ncc(C(O)(c2ccc(C(C)C)cc2)C2(C)CN(C)C2)cn1` (centres unmarked) [Example 272, (1,3-Dimethyl-azetidin-3-yl)-(4-isopropyl-phenyl)-(2-methoxy-pyrimidin-5-yl)-methanol], the half-inhibitory concentration (IC50) is 485 nM.

Take `CC(C)c1ccc([C@](O)(c2ccnc(N3CCCC3)c2)C2(C)CN(C)C2)cc1` [Example 273, (S)-(1,3-Dimethyl-azetidin-3-yl)-(4-isopropyl-phenyl)-(2-pyrrolidin-1-yl-pyridin-4-yl)-methanol]: the IC50 stood at 32 nM.

For the compound `CC(C)c1ccc(C(O)(c2ccnc(N3CCC[C@@H]3CO)c2)C2(C)CN(C)C2)cc1` (some centres unmarked) [Example 274], the IC50 is 252 nM.

As to `CC(C)c1ccc(C(O)(c2ccnc(N3CCCCC3)c2)C2(C)CN(C)C2)cc1` (centres unmarked) [Example 275], the IC50 is 67.1 nM.

For the compound `CC(C)c1ccc(C(O)(c2ccnc(N3CCOCC3)c2)C2(C)CN(C)C2)cc1` (centres unmarked) [Example 276], the 50% inhibitory concentration (IC50) turned out to be 413 nM.

With `CC(C)c1ccc([C@](O)(c2ccnc(OCC3CCOCC3)c2)C2(C)CN(C)C2)cc1` [Example 277, (S)-(1,3-Dimethyl-azetidin-3-yl)-(4-isopropyl-phenyl)-[2-(tetrahydro-pyran-4-ylmethoxy)-pyridin-4-yl]-methanol], the concentration for half-maximal inhibition (IC50) worked out at 42.2 nM.

Take `COCCOc1cc([C@@](O)(c2ccc(C(C)C)cc2)C2(C)CN(C)C2)ccn1` [Example 278, (S)-(1,3-Dimethyl-azetidin-3-yl)-(4-isopropyl-phenyl)-[2-(2-methoxy-ethoxy)-pyridin-4-yl]-methanol]: the IC50 is 48.9 nM.

On to `CCc1cc([C@@](O)(c2ccc(C(C)C)cc2)C2(C)CN(C)C2)ccn1` [Example 279, (S)-(1,3-Dimethyl-azetidin-3-yl)-(2-ethyl-pyridin-4-yl)-(4-isopropyl-phenyl)-methanol], for which the 50% inhibitory concentration (IC50) stood at 166 nM.

Consider `CC(C)c1ccc([C@](O)(c2ccnc(C3CCCC3)c2)C2(C)CN(C)C2)cc1` [Example 280, (S)-(2-Cyclopentyl-pyridin-4-yl)-(1,3-dimethyl-azetidin-3-yl)-(4-isopropyl-phenyl)-methanol], for which the IC50 is 37.4 nM.

Consider `CN1CC(C)([C@](O)(c2ccc(C(F)(F)F)cc2)c2cncc(N3CCCC3)c2)C1` [Example 281, (R)-(1,3-Dimethyl-azetidin-3-yl)-(5-pyrrolidin-1-yl-pyridin-3-yl)-(4-trifluoromethyl-phenyl)-methanol], for which the 50% inhibitory concentration (IC50) was found to be 82.2 nM.

In the case of `CC(C)c1ccc([C@](O)(c2cncc(N3CC[C@@](C)(CO)C3)c2)C2(C)CN(C)C2)cc1` [Example 282], the IC50 worked out at 44.3 nM.

Consider `CC(C)c1ccc([C@](O)(c2cncc(N3CC[C@H](F)C3)c2)C2(C)CN(C)C2)cc1` [Example 283], for which the IC50 worked out at 61.6 nM.

Take `CC(C)c1ccc([C@](O)(c2cncc(-n3cc(C4CCOCC4)nn3)c2)C2(C)CN(C)C2)cc1` [Example 284, (R)-(1,3-Dimethyl-azetidin-3-yl)-(4-isopropyl-phenyl)-{5-[4-(tetrahydro-pyran-4-yl)-[1,2,3]triazol-1-yl}-pyridin-3-yl]-methanol]: the IC50 came to 222 nM.

Take `Cc1cncc(C(O)(c2ccc(C(C)C)cc2)C2(C)CN(C)C2)c1` (centres unmarked) [Example 285]: the IC50 came out at 78 nM.

As for `C=C(C)c1cncc(C(O)(c2ccc(C(C)C)cc2)C2(C)CN(C)C2)c1` (centres unmarked) [Example 286], the half-inhibitory concentration (IC50) amounted to 36.3 nM.

Consider `CC(C)c1ccc(C(O)(c2cncc(C3CC3)c2)C2(C)CN(C)C2)cc1` (centres unmarked) [Example 287], for which the IC50 came out at 42.8 nM.

Regarding `CC(C)c1ccc(C(O)(c2cncc(C3=CCCC3)c2)C2(C)CN(C)C2)cc1` (centres unmarked) [Example 288], the IC50 stood at 33.9 nM.

Regarding `CC(C)c1ccc(C(O)(c2cncc(C3=CC(O)CC3)c2)C2(C)CN(C)C2)cc1` (centres unmarked) [Example 289, 3-{5-[(1,3-Dimethyl-azetidin-3-yl)-hydroxy-(4-isopropyl-phenyl)-methyl]-pyridin-3-yl}-cyclopent-2-enol], the IC50 came out at 82.4 nM.

As to `CC(C)c1ccc(C(O)(c2cncc(C(C)C)c2)C2(C)CN(C)C2)cc1` (centres unmarked) [Example 290], the IC50 came out at 100 nM.

Consider `CC(C)c1ccc(C(O)(c2cncc(C3CCCC3)c2)C2(C)CN(C)C2)cc1` (centres unmarked) [Example 291], for which the IC50 is 24.8 nM.

As to `CC(C)c1ccc(C(O)(c2cncc(C3CCC(O)C3)c2)C2(C)CN(C)C2)cc1` (centres unmarked) [Example 292], the half-inhibitory concentration (IC50) was 748 nM.

For `CC(C)c1ccc([C@](O)(c2cccnc2)C2(C)CN(C)C2)cc1` [Example 293], the IC50 was 246 nM.

As to `CC(C)c1ccc([C@](O)(c2cncc(C3=CC(=O)CC3)c2)C2(C)CN(C)C2)cc1` [Example 294, 3-{5-[(R)-(1,3-Dimethyl-azetidin-3-yl)-hydroxy-(4-isopropyl-phenyl)-methyl]-pyridin-3-yl}-cyclopent-2-enone], the 50% inhibitory concentration (IC50) is 49.4 nM.

Consider `CC(C)c1ccc([C@](O)(c2cncc(C3=CC(C)(O)CC3)c2)C2(C)CN(C)C2)cc1` (stereo partly drawn) [Example 295, 3-{5-[(R)-(1,3-Dimethyl-azetidin-3-yl)-hydroxy-(4-isopropyl-phenyl)-methyl]-pyridin-3-yl}-1-methyl-cyclopent-2-enol], for which the half-maximal inhibitory concentration (IC50) came to 61.1 nM.

As to `CC(C)c1ccc([C@](O)(c2cncc([C@H]3CCC(C)(O)C3)c2)C2(C)CN(C)C2)cc1` (stereo partly drawn) [Example 296, (3S)-3-(5-((R)-(1,3-dimethylazetidin-3-yl)(hydroxy)(4-isopropylphenyl)methyl)pyridin-3-yl)-1-methylcyclopentan-1-ol], the half-maximal inhibitory concentration (IC50) was 118 nM.

As to `CCC1(O)CCC(c2cncc([C@@](O)(c3ccc(C(C)C)cc3)C3(C)CN(C)C3)c2)C1` (stereo partly drawn) [Example 298, 3-{5-[(R)-(1,3-Dimethyl-azetidin-3-yl)-hydroxy-(4-isopropyl-phenyl)-methyl]-pyridin-3-yl}-1-ethyl-cyclopentanol], the IC50 came out at 65.2 nM.

Turning to `CC(C)c1ccc([C@](O)(c2cncc(C3CCC(O)(C(C)C)C3)c2)C2(C)CN(C)C2)cc1` (stereo partly drawn) [Example 299, 3-{5-[(R)-(1,3-Dimethyl-azetidin-3-yl)-hydroxy-(4-isopropyl-phenyl)-methyl]-pyridin-3-yl}-1-isopropyl-cyclopentanol], the concentration for half-maximal inhibition (IC50) came to 80.6 nM.

Consider `Cc1coc(-c2cncc([C@@](O)(c3ccc(C(C)C)cc3)C3(C)CN(C)C3)c2)n1` [Example 300, (R)-(1,3-Dimethyl-azetidin-3-yl)-(4-isopropyl-phenyl)-[5-(4-methyl-oxazol-2-yl)-pyridin-3-yl]-methanol], for which the IC50 turned out to be 40.8 nM.

In the case of `CCc1cncc([C@@](O)(c2ccc(C(C)C)cc2)C2(C)CN(C)C2)c1` [Example 301, (R)-(1,3-Dimethyl-azetidin-3-yl)-(5-ethyl-pyridin-3-yl)-(4-isopropyl-phenyl)-methanol], the IC50 was 60 nM.

On to `Cc1cncc([C@@](O)(c2ccc(C(C)C)cc2)C2(C)CN(C)C2)c1` [Example 302, (R)-(1,3-Dimethyl-azetidin-3-yl)-(4-isopropyl-phenyl)-(5-methyl-pyridin-3-yl)-methanol], for which the half-maximal inhibitory concentration (IC50) worked out at 44.5 nM.

As for `CC(C)c1ccc([C@](O)(c2cncc(C3=COCC3)c2)C2(C)CN(C)C2)cc1` [Example 303, (R)-[5-(4,5-Dihydro-furan-3-yl)-pyridin-3-yl]-(1,3-dimethyl-azetidin-3-yl)-(4-isopropyl-phenyl)-methanol], the IC50 worked out at 30.7 nM.

The values are drawn from patent US12617773B2, “Azetidin-3-ylmethanol derivatives as CCR6 receptor modulators” (Idorsia Pharmaceuticals Ltd, priority 2020, dated 2026).
